Source: patent US20220218678A1, “USE OF 1-PHENYL-2-PYRIDINYL ALKYL ALCOHOL DERIVATIVES FOR TREATING CYSTIC FIBROSIS” (CHIESI FARMACEUTICI S.p.A., priority 2017, published 2022)

Columns and labels:
CFTR = biological target: T1, CFTR (Homo sapiens, UniProt P13569, DEL508-508); assay: Western Blot, total presence of CFTR protein in CFBE41o− cells; format: cell-based; conditions: 24 h exposure, VRT809 5 μM
T1 construct: cells expressing endogenous ΔF508-CFTR; endogenous in cells; host or cells: CFBE41o− human CF bronchial epithelial cell line (gift from D. C. Gruenert), homozygous ΔF508
T1 sequence (P13569 with tags, fused parts or gaps DEL508-508): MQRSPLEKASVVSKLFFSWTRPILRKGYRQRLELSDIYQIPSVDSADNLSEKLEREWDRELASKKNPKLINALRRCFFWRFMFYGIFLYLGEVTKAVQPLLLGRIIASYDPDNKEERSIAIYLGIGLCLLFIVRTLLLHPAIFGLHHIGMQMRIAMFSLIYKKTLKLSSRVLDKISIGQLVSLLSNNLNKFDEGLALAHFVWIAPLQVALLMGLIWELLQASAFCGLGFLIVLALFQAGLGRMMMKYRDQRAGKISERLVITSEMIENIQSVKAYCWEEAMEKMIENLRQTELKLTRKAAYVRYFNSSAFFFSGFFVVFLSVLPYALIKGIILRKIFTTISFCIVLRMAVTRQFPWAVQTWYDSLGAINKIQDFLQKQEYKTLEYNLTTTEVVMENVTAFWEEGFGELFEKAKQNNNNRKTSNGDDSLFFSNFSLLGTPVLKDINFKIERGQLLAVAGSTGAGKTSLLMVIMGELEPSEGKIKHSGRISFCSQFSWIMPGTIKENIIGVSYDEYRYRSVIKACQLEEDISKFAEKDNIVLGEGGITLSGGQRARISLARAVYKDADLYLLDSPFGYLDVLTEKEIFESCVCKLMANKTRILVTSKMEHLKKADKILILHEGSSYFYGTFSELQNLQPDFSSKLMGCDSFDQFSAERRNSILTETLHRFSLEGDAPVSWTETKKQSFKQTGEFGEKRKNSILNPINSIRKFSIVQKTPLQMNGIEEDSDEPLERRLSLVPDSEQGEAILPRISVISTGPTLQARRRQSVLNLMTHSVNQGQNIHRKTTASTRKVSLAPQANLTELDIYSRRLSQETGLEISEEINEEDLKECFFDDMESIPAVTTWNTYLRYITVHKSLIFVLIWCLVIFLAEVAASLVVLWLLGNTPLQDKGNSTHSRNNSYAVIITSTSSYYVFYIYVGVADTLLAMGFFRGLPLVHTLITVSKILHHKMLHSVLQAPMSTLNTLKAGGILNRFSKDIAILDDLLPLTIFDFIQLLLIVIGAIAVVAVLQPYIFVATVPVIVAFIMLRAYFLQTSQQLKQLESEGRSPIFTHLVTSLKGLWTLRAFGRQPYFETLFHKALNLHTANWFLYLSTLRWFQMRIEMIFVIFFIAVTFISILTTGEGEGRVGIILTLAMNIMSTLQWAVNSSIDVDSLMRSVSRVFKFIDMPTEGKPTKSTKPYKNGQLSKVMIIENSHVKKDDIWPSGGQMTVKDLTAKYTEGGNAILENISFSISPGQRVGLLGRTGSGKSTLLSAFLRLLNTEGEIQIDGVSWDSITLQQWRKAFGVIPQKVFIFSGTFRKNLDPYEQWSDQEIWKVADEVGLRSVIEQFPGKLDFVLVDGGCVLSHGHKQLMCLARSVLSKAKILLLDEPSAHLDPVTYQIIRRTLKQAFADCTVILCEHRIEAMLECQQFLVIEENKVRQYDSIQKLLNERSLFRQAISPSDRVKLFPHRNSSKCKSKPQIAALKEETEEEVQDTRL
Method: CFBE41o− and 16HBE14o− cells, respectively, were lysed in lysis buffer (50 mmol/L Tris, 150 mmol/L NaCl, 1 mmol/L EDTA, 1% Triton X-100 pH 7.4) containing protease inhibitors (Roche, Inc.). A total of 10 μg (16HBE14o−/CFBE41o−) total protein per lane was separated using 7.5% (v/v) polyacrylamide electrophoresis (PAGE) SDS gels and transferred onto nitro-cellulose membranes, that were probed with a monoclonal anti-CFTR antibody (Cell Signaling 2269; according to information provided by Cell Signaling produced by immunizing rabbits with a synthetic peptide corresponding to amino acid residues near the amino terminus of human CFTR) at a 1:500 dilution, overnight at 4° C. Membranes were re-probed with a monoclonal anti-actin (Sigma-Aldrich) to normalize for protein loading. The relative levels of CFTR were estimated by densitometry using the ImageJ program (http://rsb.info.nih.gov/ij/). The amount of band C (understood to be the fully glycosylated mature form of CFTR)) is calculated as a fraction of actin for the respective lane and reported as a fraction of the total (band C/actin). […] The values reported are expressed as means+/−SD (n=3). Data sets were compared by a t-test using GraphPad Prism. […]
FIG. 5. Presence of CFTR was evaluated by western blotting in human bronchial epithelial cell lines 16HBE14o− (non CF) and CFBE41o− (ΔF508/ΔF508) after 24 h exposure to CFTR corrector VRT809 (5 μM) in comparison with the two compounds CHF6001 and Roflumilast.
Top: average of several experiments; the relative levels of CFTR were estimated by densitometry using the ImageJ program (http://rsb.info.nih.gov/ij/). The native amount of band C is calculated as a fraction of actin for the respective lane and reported as a fraction of the total (band C/actin). The values reported are expressed as means+/−SEM (n=3). […]

ΔF508 CFTR = biological target: T2, ΔF508 CFTR (Homo sapiens, UniProt P13569, DEL508-508); assay: HS-YFP assay, CFTR corrector activity in CFBE41o− cells; format: cell-based; conditions: 24 h exposure, VRT809 5 μM
T2 construct: cells expressing endogenous ΔF508-CFTR; endogenous in cells; host or cells: CFBE41o− human CF bronchial epithelial cell line (gift from D. C. Gruenert), homozygous ΔF508
T2 sequence (P13569 with tags, fused parts or gaps DEL508-508): as above
Excerpt: The CF human bronchial epithelial cell line (CFBE41o−), homozygous for the ΔF508 mutation of the CFTR protein (Ehrhard et al., 2006, Cell Tissue Res. Vol. 323, p. 405-415; kind gift from D. C. Gruenert, California Pacific Medical Center Research Institute, San Francisco, Calif., USA) and the human bronchial epithelial cell line 16HBE14o−, wildtype (wt) for the CFTR protein (kindly provided by P. Davis, Case Western Reserve University School of Medicine, Cleveland, Ohio, USA) were maintained in EMEM (Lonza) supplemented with 10% FBS and 1% Glutamax (Sigma). […]
The CFTR activity in epithelial cells was evaluated by Yellow Fluorescence Protein (YFP) with a protocol modified from the method published by Averna et al. (PLoS One, 2013, vol. 8, e66089). […]
The potential corrector activity of roflumilast and a compound of general formula (I) (CHF6001) was evaluated in comparison with the known CFTR corrector VRT809 in the human bronchial epithelial cell line CFBE41o− (homozygous for the ΔF508 mutation of the CFTR protein) by the HS-YFP assay (FIG. 3). […]
FIG. 3. CFTR corrector activity was evaluated in CFBE41o− epithelial cell line after 24 h exposure to CFTR corrector VRT809 (5 μM), CHF6001, and Roflumilast at the indicated doses.
Values are normalized for total cell content and expressed as means±SEM (n=4) *p≤0.05 t-test (vs DMSO)

Compound | total presence of CFTR protein (band C/actin) (CFTR) | CFTR activity (corrector activity) compared with VRT809 (ΔF508 CFTR)
CS(=O)(=O)Nc1ccc(C(=O)OC(Cc2c(Cl)c[n+]([O-])cc2Cl)c2ccc(OC(F)F)c(OCC3CC3)c2)cc1OCC1CC1 (stereo not shown) [CHF6001, 3-Cyclopropylmethoxy-4-methanesulfonylamino-benzoic acid 1-(3-cyclopropylmethoxy-4-difluoromethoxy-phenyl)-2-(3,5-dichloro-1-oxy-pyridin-4-yl)-ethyl ester] | up-regulation of CFTR protein | equal or superior to VRT809
O=C(Nc1c(Cl)cncc1Cl)c1ccc(OC(F)F)c(OCC2CC2)c1 [Roflumilast, 3-cyclo-propylmethoxy-4-difluoromethoxy-N-[3,5-di-chloropyrid-4-yl]-benzamide] | up-regulation of CFTR protein | equal or superior to VRT809
